Source: US20190137505A1 (THE ARIZONA BOARD OF REGENTS ON BEHALF OF THE UNIVERSITY OF …, priority 2015, published 2019)

Experiment: LC-MS/MS MRM quantitation of metformin-MG imidazolinone and metformin in human urine
Type: in vivo
Method: An Agilent (Palo Alto, Calif.) 1260 liquid chromatograph was utilized for achieving gradient separation using an Agilent ZORBAX Hilic Plus (2.1×50 mm) column with a 1.8 μm packing size held at 30° C. throughout the separation. A 5 μL injection of urine diluted 1:200 in Milli-Q water and snap filtered ([…] eXtreme® Filter Vial 0.2 um PVDF; Thomson, Oceanside, Calif.) was used for all samples. A binary gradient consisting of 15 mM ammonium acetate in water (A) and acetonitrile (B) at a flow rate of 300 μL/min was used. […] After this, a linear gradient was maintained to achieve 35% B at 9 min which was held for another minute. At 10 min, another linear change was applied to get to the initial condition of 95% B at 11 min. A post-time of three min was used to re-equilibriate the column before the next analysis. The total analysis time was 14 min per sample. Mass spectrometry was performed using an Agilent 6490 triple-quadrupole mass spectrometer with an electrospray ionization (ESI) source. […] After this was determined, the mass spectrometer was operated in product ion scan mode and the most abundant product ions were selected. […] Once the product ions were determined, the collision energy (CE) and cell accelerator voltage (CAV) were optimized for each transition. […]

- IMZ in urine of MF-treated T2DM patients (all MF-treated T2DM patients): detected
- Levels of the MF-MG adduct detectable in urine (human diabetic subjects on MF treatment): up to 4.32 μM/specific gravity
Structure (SMILES): CC1NC(/N=C(\N)N(C)C)=NC1=O (centres unmarked) [IMZ, (E)-1,1-dimethyl-2-(5-methyl-4-oxo-4,5-dihydro-1H-imidazol-2-yl)guanidine]
